# Results as given in US20240325398A1, “COMBINATION THERAPIES” (Infinity Pharmaceuticals, Inc., priority 2014, published 2024).
# How the values were obtained:
# U-2932 = assay: Combination study, ATPLite 72 h, dose matrix (Synergy Score, CI50); conditions: combination with Compound 1, 72 h
# Method: (§1) Cells are thawed from a liquid nitrogen preserved state. Once cells have been expanded and divide at their expected doubling times, screening begins. Cells are seeded in growth media in either black 1536-well or 384-well tissue culture treated plates. Cells are then equilibrated in assay plates via centrifugation and placed in incubators attached to the Dosing Modules at 37° C. for 24 hours before treatment. […] These Tzero (To) plates are read using ultra-sensitive luminescence on Envision plate readers (Perkin Elmer). Treated assay plates are incubated with compound for 72 hours. After 72 hours, plates are developed for endpoint analysis using ATPLite. All data points are collected via automated processes, quality controlled and analyzed using Zalicus software.
# (§2) where T is treated cell count and V is untreated (vehicle) cell count (at 72 hours). I ranges from 0% (when T=V) to 100% (when T=0). […] The measure of effect in the experiment can be the inhibition of cellular response relative to the untreated level (vehicle alone). […] The inhibition ranges from 0% at the untreated level to 100% when T=0. Inhibition levels are negative for agents that actually increase levels. Other effect measures, such as an activity ratio r=T/V may be more appropriate for some assays. When activity ratios (e.g, fold increase over stimulated control) are being used, the effect can be measured using an induction 1=ln(T/V). With this definition, all effect expressions are the same as for inhibition.
# (§3) Growth Inhibition (GI) is used as a measure of cell viability. […] A GI reading of 100% represents complete growth inhibition—T72 compound-treated and T0 vehicle signals are matched. […] A GI reading of 200% represents complete death of all cells in the culture well. Compounds reaching an activity plateau of GI 200% are considered cytotoxic. GI is calculated by applying the following test and equation:
# (§4) Combination analysis data were collected in a 6×6 dose matrix. Synergy is calculated by comparing a combination's response to those of its single compound, against the drug-with-itself dose-additive reference model. Deviations from dose additivity may be assessed visually on an isobologram or numerically with a Combination Index (CI). […] Additive effect is CI=1.0. […] Antagonistic effect is CI>1.0.
# (§5) To measure combination effects in excess of Loewe additivity, a scalar measure to characterize the strength of synergistic interaction termed the Synergy Score is devised. The Synergy Score is calculated as:
# (§6) The fractional inhibition for each component agent and combination point in the matrix is calculated relative to the median of all vehicle-treated control wells. The Synergy Score equation integrates the experimentally-observed activity volume at each point in the matrix in excess of a model surface numerically derived from the activity of the component agents using the Loewe model for additivity. Additional terms in the Synergy Score equation (above) are used to normalize for various dilution factors used for individual agents and to allow for comparison of synergy scores across an entire experiment. The inclusion of positive inhibition gating or an Idata multiplier removes noise near the zero effect level, and biases results for synergistic interactions at that occur at high activity levels.
# Loewe Volume (Loewe Vol) is used to assess the overall magnitude of the combination interaction in excess of the Loewe additivity model. Loewe Volume is particularly useful when distinguishing synergistic increases in a phenotypic activity (positive Loewe Volume) versus synergistic antagonisms (negative Loewe Volume). […] This model defines additivity as a non-synergistic combination interaction where the combination dose matrix surface should be indistinguishable from either drug crossed with itself. The calculation for Loewe additivity is:
# Farage = assay: as above; conditions: combination with Compound 1; Farage; 72 h
# Method: as §1, §2, §3, §4
# The isobologram was drawn by identifying the locus of concentrations that correspond to crossing the indicated inhibition level. This is done by finding the crossing point for each single agent concentration in a dose matrix across the concentrations of the other single agent. Practically, each vertical concentration CY is held fixed while a bisection algorithm is used to identify the horizontal concentration CX in combination with that vertical dose that gives the chosen effect level in the response surface Z(CX,CY). These concentrations are then connected by linear interpolation to generate the isobologram display. For synergistic interactions, the isobologram contour fall below the additivity threshold and approaches the origin, and an antagonistic interaction would lie above the additivity threshold. The error bars represent the uncertainty arising from the individual data points used to generate the isobologram. The uncertainty for each crossing point is estimated from the response errors using bisection to find the concentrations where Z−αZ(CX,CY) and Z+σZ(CX,CY) cross Icut, where αZ is the standard deviation of the residual error on the effect scale.
# as §5
# The fractional inhibition for each component agent and combination point in the matrix is calculated relative to the median of all vehicle-treated control wells.
# RL = assay: as above; conditions: combination with Compound 1, 72 h
# SU-DHL-4-epst = assay: as above; conditions: combination with Compound 1, 72 h
# HH = assay: as above; type: cell-based; conditions: combination with Compound 1
# Method: The method is described as follows.
# Additive effect is CI=1.0. […] Antagonistic effect is CI>1.0.
# The Synergy Score is calculated as: […]
# OCI-Ly7 = assay: as above; conditions: combination with Compound 1, 72 h
# GRANTA-519 = assay: as above; conditions: combination with Compound 1
# Method: as §1, §2, §3, §4, §5, §6
# Loewe Volume (Loewe Vol) is used to assess the overall magnitude of the combination interaction in excess of the Loewe additivity model. Loewe Volume is particularly useful when distinguishing synergistic increases in a phenotypic activity (positive Loewe Volume) versus synergistic antagonisms (negative Loewe Volume). […] This model defines additivity as a non-synergistic combination interaction where the combination dose matrix surface should be indistinguishable from either drug crossed with itself.
# OCI-Ly3 = assay: as above; conditions: combination with Compound 1; OCI-Ly3; 72 h
# NCI-H929 = assay: as above; conditions: combination with Compound 1
# Mino = assay: as above; conditions: combination with Compound 1
# KARPAS-422 = assay: as above; conditions: combination with Compound 1, 72 h
# Jeko-1 = assay: as above; conditions: combination with Compound 1
# RPMI-8226 = assay: as above; conditions: combination with Compound 1
# [1] = as above; conditions: combination with Compound 1; OPM-2
# OMP-2 = assay: as above; conditions: combination with Compound 1; OPM-2
# WSU-NHL = assay: as above; conditions: combination with Compound 1, 72 h
# DOHH-2 = assay: as above; conditions: combination with Compound 1, 72 h
# KARPAS-299 = assay: as above; conditions: combination with Compound 1
# TMD8 = assay: as above; conditions: combination with Compound 1; TMD8; 72 h
# HBL-1 = assay: as above; conditions: combination with Compound 1, 72 h
# SU-DHL-10-epst = assay: as above; conditions: combination with Compound 1, 72 h
compound,measurement,setting,value
COc1ccc(-c2ccc3c(N4CCOC[C@@H]4C)nc(N4CCOC[C@@H]4C)nc3n2)cc1CO [AZD 8055],CI50 growth inhibition,U-2932,S (S=0.01 to <0.5)
same,CI50 inhibition,U-2932,U (U=0.7 to <1)
same,Synergy Score growth inhibition,U-2932,A2 (A2=1 to <3)
same,Synergy Score inhibition,U-2932,A2 (A2=1 to <3)
same,CI50 growth inhibition,Farage,S (S=0.01 to <0.5)
same,CI50 inhibition,Farage,S (S=0.01 to <0.5)
same,Synergy Score growth inhibition,Farage,A3 (A3=>3)
same,Synergy Score inhibition,Farage,A3 (A3=>3)
same,CI50 growth inhibition,RL,U (U=0.7 to <1)
same,CI50 inhibition,RL,U (U=0.7 to <1)
same,Synergy Score growth inhibition,RL,A2 (A2=1 to <3)
same,Synergy Score inhibition,RL,A2 (A2=1 to <3)
same,CI50 growth inhibition,SU-DHL-4-epst,T (T=0.5 to <0.7)
same,CI50 inhibition,SU-DHL-4-epst,S (S=0.01 to <0.5)
same,Synergy Score growth inhibition,SU-DHL-4-epst,A3 (A3=>3)
same,Synergy Score inhibition,SU-DHL-4-epst,A3 (A3=>3)
same,CI50 growth inhibition,HH,S (S=0.01 to <0.5)
same,CI50 inhibition,HH,S (S=0.01 to <0.5)
same,Synergy Score growth inhibition,HH,A3 (A3=>3)
same,Synergy Score inhibition,HH,A2 (A2=1 to <3)
same,CI50 growth inhibition,OCI-Ly7,S (S=0.01 to <0.5)
same,CI50 inhibition,OCI-Ly7,T (T=0.5 to <0.7)
same,Synergy Score growth inhibition,OCI-Ly7,A3 (A3=>3)
same,Synergy Score inhibition,OCI-Ly7,A2 (A2=1 to <3)
same,CI50 growth inhibition,GRANTA-519,T (T=0.5 to <0.7)
same,CI50 inhibition,GRANTA-519,U (U=0.7 to <1)
same,Synergy Score growth inhibition,GRANTA-519,A2 (A2=1 to <3)
same,Synergy Score inhibition,GRANTA-519,A1 (A1=0.0001 to <1)
same,CI50 growth inhibition,OCI-Ly3,S (S=0.01 to <0.5)
same,CI50 inhibition,OCI-Ly3,T (T=0.5 to <0.7)
same,Synergy Score growth inhibition,OCI-Ly3,A2 (A2=1 to <3)
same,Synergy Score inhibition,OCI-Ly3,A1 (A1=0.0001 to <1)
same,CI50 growth inhibition,NCI-H929,W (W=≥1)
same,CI50 inhibition,NCI-H929,T (T=0.5 to <0.7)
same,Synergy Score growth inhibition,NCI-H929,A3 (A3=>3)
same,Synergy Score inhibition,NCI-H929,A2 (A2=1 to <3)
same,CI50 growth inhibition,Mino,U (U=0.7 to <1)
same,CI50 inhibition,Mino,S (S=0.01 to <0.5)
same,Synergy Score growth inhibition,Mino,A2 (A2=1 to <3)
same,Synergy Score inhibition,Mino,A1 (A1=0.0001 to <1)
same,CI50 growth inhibition,KARPAS-422,S (S=0.01 to <0.5)
same,CI50 inhibition,KARPAS-422,S (S=0.01 to <0.5)
same,Synergy Score growth inhibition,KARPAS-422,A2 (A2=1 to <3)
same,Synergy Score inhibition,KARPAS-422,A2 (A2=1 to <3)
same,CI50 growth inhibition,Jeko-1,S (S=0.01 to <0.5)
same,CI50 inhibition,Jeko-1,T (T=0.5 to <0.7)
same,Synergy Score growth inhibition,Jeko-1,A3 (A3=>3)
same,Synergy Score inhibition,Jeko-1,A2 (A2=1 to <3)
same,CI50 growth inhibition,RPMI-8226,U (U=0.7 to <1)
same,CI50 inhibition,RPMI-8226,W (W=≥1)
same,Synergy Score growth inhibition,RPMI-8226,A2 (A2=1 to <3)
same,Synergy Score inhibition,RPMI-8226,A1 (A1=0.0001 to <1)
same,CI50 growth inhibition,[1],U (U=0.7 to <1)
same,CI50 inhibition,OMP-2,W (W=≥1)
same,Synergy Score growth inhibition,OMP-2,A2 (A2=1 to <3)
same,Synergy Score inhibition,OMP-2,A1 (A1=0.0001 to <1)
same,CI50 growth inhibition,WSU-NHL,T (T=0.5 to <0.7)
same,CI50 inhibition,WSU-NHL,S (S=0.01 to <0.5)
same,Synergy Score growth inhibition,WSU-NHL,A3 (A3=>3)
same,Synergy Score inhibition,WSU-NHL,A3 (A3=>3)
same,CI50 growth inhibition,DOHH-2,S (S=0.01 to <0.5)
same,CI50 inhibition,DOHH-2,S (S=0.01 to <0.5)
same,Synergy Score growth inhibition,DOHH-2,A3 (A3=>3)
same,Synergy Score inhibition,DOHH-2,A3 (A3=>3)
same,CI50 growth inhibition,KARPAS-299,W (W=≥1)
same,CI50 inhibition,KARPAS-299,U (U=0.7 to <1)
same,Synergy Score growth inhibition,KARPAS-299,A1 (A1=0.0001 to <1)
same,Synergy Score inhibition,KARPAS-299,A1 (A1=0.0001 to <1)
same,CI50 growth inhibition,TMD8,S (S=0.01 to <0.5)
same,CI50 inhibition,TMD8,S (S=0.01 to <0.5)
same,Synergy Score growth inhibition,TMD8,A3 (A3=>3)
same,Synergy Score inhibition,TMD8,A3 (A3=>3)
same,CI50 growth inhibition,HBL-1,S (S=0.01 to <0.5)
same,CI50 inhibition,HBL-1,T (T=0.5 to <0.7)
same,Synergy Score growth inhibition,HBL-1,A3 (A3=>3)
same,Synergy Score inhibition,HBL-1,A1 (A1=0.0001 to <1)
same,CI50 growth inhibition,SU-DHL-10-epst,S (S=0.01 to <0.5)
same,CI50 inhibition,SU-DHL-10-epst,S (S=0.01 to <0.5)
same,Synergy Score growth inhibition,SU-DHL-10-epst,A3 (A3=>3)
same,Synergy Score inhibition,SU-DHL-10-epst,A3 (A3=>3)
Nc1ncn([C@@H]2O[C@H](CO)[C@@H](O)[C@H]2O)c(=O)n1 [Azacitidine],CI50 growth inhibition,U-2932,S (S=0.01 to <0.5)
same,CI50 inhibition,U-2932,W (W=≥1)
same,CI50 growth inhibition,Farage,S (S=0.01 to <0.5)
same,CI50 inhibition,Farage,S (S=0.01 to <0.5)
same,CI50 growth inhibition,RL,T (T=0.5 to <0.7)
same,CI50 inhibition,RL,U (U=0.7 to <1)
same,CI50 growth inhibition,SU-DHL-4-epst,S (S=0.01 to <0.5)
same,CI50 inhibition,SU-DHL-4-epst,S (S=0.01 to <0.5)
same,CI50 growth inhibition,HH,S (S=0.01 to <0.5)
same,CI50 inhibition,HH,S (S=0.01 to <0.5)
same,CI50 growth inhibition,OCI-Ly7,T (T=0.5 to <0.7)
same,CI50 inhibition,OCI-Ly7,T (T=0.5 to <0.7)
same,CI50 growth inhibition,GRANTA-519,U (U=0.7 to <1)
same,CI50 growth inhibition,OCI-Ly3,S (S=0.01 to <0.5)
same,CI50 growth inhibition,NCI-H929,U (U=0.7 to <1)
same,CI50 inhibition,NCI-H929,U (U=0.7 to <1)
same,CI50 growth inhibition,Mino,S (S=0.01 to <0.5)
same,CI50 inhibition,Mino,S (S=0.01 to <0.5)
same,CI50 growth inhibition,KARPAS-422,T (T=0.5 to <0.7)
same,CI50 inhibition,KARPAS-422,U (U=0.7 to <1)
same,CI50 growth inhibition,Jeko-1,S (S=0.01 to <0.5)
same,CI50 inhibition,Jeko-1,T (T=0.5 to <0.7)
same,CI50 growth inhibition,RPMI-8226,T (T=0.5 to <0.7)
same,CI50 inhibition,RPMI-8226,W (W=≥1)
same,CI50 growth inhibition,[1],S (S=0.01 to <0.5)
same,CI50 inhibition,OMP-2,W (W=≥1)
same,CI50 growth inhibition,WSU-NHL,T (T=0.5 to <0.7)
same,CI50 inhibition,WSU-NHL,S (S=0.01 to <0.5)
same,CI50 growth inhibition,DOHH-2,U (U=0.7 to <1)
same,CI50 inhibition,DOHH-2,U (U=0.7 to <1)
same,CI50 growth inhibition,KARPAS-299,W (W=≥1)
same,CI50 inhibition,KARPAS-299,W (W=≥1)
same,CI50 growth inhibition,TMD8,U (U=0.7 to <1)
same,CI50 inhibition,TMD8,U (U=0.7 to <1)
same,CI50 growth inhibition,HBL-1,S (S=0.01 to <0.5)
same,CI50 inhibition,HBL-1,W (W=≥1)
same,CI50 growth inhibition,SU-DHL-10-epst,S (S=0.01 to <0.5)
same,CI50 inhibition,SU-DHL-10-epst,S (S=0.01 to <0.5)
